From US20030021763A1, “Method for the treatment and/or prophylaxis of diseases caused by IL-12” (Gruenenthal GmbH., priority 1999, published 2003)
Where “and” joins values, the source holds several entries; their conditions need not be identical. Equal values may be shown once.

Tested on: IL-12 production of LPS-activated monocytes
Assay: Stimulation of human monocytes with lipopolysaccharide to secrete IL-12 (IL-12 sandwich ELISA of culture supernatants)
Format: cell-based
Details: for inhibition at 0.05 µg/mL / inhibition at 0.5 µg/mL / inhibition at 5 µg/mL: Homo sapiens, Monocyte, read-out: % inhibition of the IL-12 production of the control without inhibitors; for inhibition at 0.05 µg/mL / inhibition at 0.5 µg/mL / inhibition at 5 µg/mL / % inhibition of the IL-12 production of the control without inhibitors / IL-12 production: LPS 20 μg/ml, 24 hours; for action on the IL-12 production of LPS-stimulated monocytes: Tables 2 to 4
Procedure: Stimulation of Human Monocytes with Lipopolysaccharide to Secrete IL-12
Human monocytes were isolated from peripheral blood mononuclear cells (PBMC) which had been obtained from heparinized full blood by a Ficoll density gradient centrifugation. To that end, the PBMC were incubated with a monoclonal antibody directed against the monocyte-specific surface molecule CD14 and to which superparamagnetic microbeads (Miltenyi Biotech, Bergisch Gladbach) were coupled. For the positive selection of the labelled monocytes from the PBMC cell mixture, the total cell suspension was applied to a column having a ferromagnetic carrier matrix, and the column was placed in a magnetic field. The cells charged with microbeads were thus bonded to the carrier matrix, while unlabelled cells passed through the column and were discarded. After removing the matrix from the magnetic field, the antibody-charged cells were eluted by flushing the now demagnetised column with buffer. The purity of the resulting CD14-positive monocyte population was approximately from 95 to 98%. The monocytes were incubated for one hour at 37° C. and 5% CO2 in a density of 10^6cells/ml culture medium (RPMI, supplemented with 10% foetal calf serum) with the test substances dissolved in DMSO. 20 μg/ml of LPS from E. coli were then added. After 24 hours, cell-free culture supernatants were collected and tested for their IL-12 content.
The concentration of IL-12 in the cell culture supernatants was determined by sandwich ELISA's using two anti-IL-12 monoclonal antibodies (Biosource Europe, Fleurus, Belgium). A reference standard curve with human IL-12 was included. The detection limit of the IL-12 ELISA was 10 pg/ml.

[1] = test substance 0.05 μg/ml, IL-10 0 pg/ml
[2] = test substance 0.5 μg/ml, IL-10 0 pg/ml
[3] = test substance 5 μg/ml, IL-10 0 pg/ml
[4] = test substance 0.05 μg/ml combined with IL-10 5 pg/ml
[5] = test substance 0.05 μg/ml combined with IL-10 50 pg/ml
[6] = test substance 0.5 μg/ml combined with IL-10 5 pg/ml
[7] = test substance 0.5 μg/ml combined with IL-10 50 pg/ml
[8] = test substance 5 μg/ml combined with IL-10 5 pg/ml
[9] = test substance 5 μg/ml combined with IL-10 50 pg/ml
[10] = test substance 0.005 μg/ml combined with IL-10 5 pg/ml
[11] = test substance 0.005 μg/ml combined with IL-10 50 pg/ml
[12] = test substance 0.005 μg/ml, IL-10 0 pg/ml

| Compound | inhibition at 0.05 µg/mL [1] [%] | inhibition at 0.5 µg/mL [2] [%] | inhibition at 5 µg/mL [3] [%] | action on the IL-12 production of LPS-stimulated monocytes | % inhibition of the IL-12 production of the control without inhibitors [4] [%] | IL-12 production [4] [pg/mL] | % inhibition of the IL-12 production of the control without inhibitors [5] [%] | IL-12 production [5] [pg/mL] | IL-12 production [1] [pg/mL] | % inhibition of the IL-12 production of the control without inhibitors [6] [%] | IL-12 production [6] [pg/mL] | % inhibition of the IL-12 production of the control without inhibitors [7] [%] | IL-12 production [7] [pg/mL] | IL-12 production [2] [pg/mL] | % inhibition of the IL-12 production of the control without inhibitors [8] [%] | IL-12 production [8] [pg/mL] | % inhibition of the IL-12 production of the control without inhibitors [9] [%] | IL-12 production [9] [pg/mL] | IL-12 production [3] [pg/mL] | other results |
| --- | --- | --- | --- | --- | --- | --- | --- | --- | --- | --- | --- | --- | --- | --- | --- | --- | --- | --- | --- | --- |
| O=C1CCC(N2Cc3ccccc3C2=O)C(=O)N1 (centres unmarked) [EM 12, 3-(1-oxo-1,3-dihydro-isoindol-2-yl)-piperidine-2,6-dione] | 47 | 68 | 66 | dose-dependent inhibitory action | 55 | 2944 | 91 | 589 | 3478 | 78 | 1462 | 90 | 649 | 2098 | 81 | 1271 | 92 | 546 | 2220 |  |
| O=C1CCC(N2C(=O)c3ccccc3C2=O)C(=O)N1 (centres unmarked) [Thalidomide, 2-(2,6-dioxo-piperidin-3-yl)-isoindole-1,3-dione, reference compound] | 45 | 67 | 76 | dose-dependent inhibitory action | 68 | 1958 | 87 | 809 | 3369 | 81 | 1147 | 90 | 618 | 2037 | 83 | 1057 | 93 | 447 | 1481 |  |
| CC1(N2C(=O)c3ccccc3C2=O)CCC(=O)NC1=O (stereo not drawn) [EM 978, α-methyl thalidomide] |  |  |  | dose-dependent inhibitory action | 61 | 1897 | 68 | 1555 | 3161 | 94 | 272 | 96 | 191 | 439 |  |  |  |  |  | % inhibition of the IL-12 production of the control without inhibitors [10]: 40%; IL-12 production [10]: 2922 pg/mL; % inhibition of the IL-12 production of the control without inhibitors [11]: 53%; IL-12 production [11]: 2302 pg/mL; % inhibition of the IL-12 production of the control without inhibitors [12]: 7%; IL-12 production [12]: 4571 pg/mL; % inhibition of the IL-12 production of the control without inhibitors [1]: 35%; % inhibition of the IL-12 production of the control without inhibitors [2]: 91%; concentration lower than in the case of thalidomide or EM 12 to achieve the same effects (versus thalidomide or EM 12): 10 times lower |
| IL-10: anti-inflammatory cytokine originally described as cytokine synthesis inhibitory factor |  |  |  | dose-dependent inhibitory action |  |  |  |  |  |  |  |  |  |  |  |  |  |  |  | EC50: 0.05 ng/mL; IL-12 production (IL-10 5 pg/ml alone (thalidomide compound 0 μg/ml)): 5637 pg/mL and 4393 pg/mL and 4581 pg/mL; % inhibition of the IL-12 production of the control without inhibitors (IL-10 50 pg/ml alone (thalidomide compound 0 μg/ml)): 58% and 47% and 81% |
